Nine compounds from patent publication US5773239A, “Mannosidase inhibitors, process for their preparation and their use as therapeutic agents” (Mount Sinai Hospital Corporation., priority 1995, dated 1998) can be followed below.

One test has as its system bone marrow cells. The test can be described thus: Bone marrow cell proliferation assay. It is filed as in vivo, C57B1/6J mice. As to conditions: 10 ug/injection i.p. twice daily, four days; mean +/- S.E. of 4 experiments. Here is the method: Pathogen-free C57B1/6J mice, 8-14 weeks old were maintained according to NIH ethical guidelines. Groups of 2-3 mice received intraperitoneal injections of the PBS, SW or designated analog twice daily for 4 days. […] Eighteen hours after the last SW injection, mice were sacrificed and BM cells were harvested. Marrow cell suspensions were prepared under sterile conditions using femurs and tibias of both legs from each donor. Bone marrow (BM) cells were flushed from the marrow cavities with ice-cold RPMI 1640, washed and resuspended at desired concentrations in RPMI-1640 supplemented with 5% FCS, penicillin (100 U/ml) and streptomycin (100 μg/ml). Cell viability was monitored by staining with trypan blue. The ability of the analogues to stimulate BM proliferation was measured by two methods. First, cellularity was determined by directly counting BM cells after they were flushed from the tibias and femurs. Second, enhancement in proliferation was assessed by the increase in the proportion of BM progenitor cells present in the BM preparations as measured by colony formation in soft agar (CFU). BM cells were processed according to the procedures of the GIBCO-BRL Mouse Bone Marrow Stem Cell Proliferation Kit, which employs suspensions of mononuclear cells in a semi-solid methylcellulose medium containing FCS. 2-mercaptoethanol and the growth factors, interleukin-3 (IL-3) (75 U/ml) and erythropoietin (20 U/ml). The plates were incubated for 10-14 days at 37° C. in a humidified atmosphere of 5% CO2 and 95% air, and colonies consisting of at least 40 cells were enumerated using an inverted microscope. The potential colonies that form in the semi-solid medium are the granulocyte, erythrocyte, monocyte, megakaryocyte (ie. CFU-GEMM); the granulocyte, macrophage (ie. CFU-GM), and the burst forming unit-erythroid(ie BFUe).
Mice were given twice daily intraperitoneal injections of PBS, SW or the analogues at 10 ug/injection. After four days of injections, BM cells were flushed from the femurs and tibias and counted. CFUs growing in soft agar consisting of at least 40 cells were enumerated. The results are the mean +/-S.E. of 4 experiments.

In test [1] the target is T1, MDAY-D2 lysosomal α-mannosidases (Mus musculus, UniProt O09159).
T1 construct: 10 μl MDAY-D2 tumor cell lysate; endogenous in cells; host or cells: MDAY-D2 tumor cells (lysate)
T1 sequence (O09159 50-1013): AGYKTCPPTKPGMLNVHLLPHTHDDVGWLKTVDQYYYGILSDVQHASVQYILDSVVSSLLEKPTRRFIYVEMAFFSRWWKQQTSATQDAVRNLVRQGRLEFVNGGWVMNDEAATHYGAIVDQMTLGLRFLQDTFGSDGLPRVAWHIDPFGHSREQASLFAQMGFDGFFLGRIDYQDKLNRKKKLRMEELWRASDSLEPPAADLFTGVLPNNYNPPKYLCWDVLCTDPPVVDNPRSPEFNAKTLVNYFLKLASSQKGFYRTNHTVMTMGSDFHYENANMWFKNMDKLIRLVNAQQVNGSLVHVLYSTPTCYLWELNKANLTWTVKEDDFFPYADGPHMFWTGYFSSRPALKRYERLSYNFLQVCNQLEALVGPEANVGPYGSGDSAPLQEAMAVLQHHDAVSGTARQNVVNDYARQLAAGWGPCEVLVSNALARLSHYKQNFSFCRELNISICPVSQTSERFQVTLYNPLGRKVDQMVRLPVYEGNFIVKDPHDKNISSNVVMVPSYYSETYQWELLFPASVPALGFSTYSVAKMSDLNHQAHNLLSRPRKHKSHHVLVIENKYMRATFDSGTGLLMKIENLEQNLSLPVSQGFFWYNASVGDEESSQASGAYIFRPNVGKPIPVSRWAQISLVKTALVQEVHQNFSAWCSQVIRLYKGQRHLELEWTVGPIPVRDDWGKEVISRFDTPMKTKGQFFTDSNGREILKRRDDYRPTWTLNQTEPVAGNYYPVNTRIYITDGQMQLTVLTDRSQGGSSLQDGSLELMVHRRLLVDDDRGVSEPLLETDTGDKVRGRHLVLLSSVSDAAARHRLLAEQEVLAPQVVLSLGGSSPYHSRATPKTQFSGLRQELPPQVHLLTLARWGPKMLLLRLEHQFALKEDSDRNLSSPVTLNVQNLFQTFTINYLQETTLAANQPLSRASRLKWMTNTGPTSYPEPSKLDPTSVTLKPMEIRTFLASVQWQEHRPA
The test can be described thus: Inhibition of lysosomal α-mannosidases in MDAY-D2 tumor cell lysate. The format is biochemical. Here is the method:
SW and analogues were serially diluted into a volume of 75 μl in 96 well Elisa plates followed by the addition of 37.5 μl of 100 mM sodium acetate pH 5.0 and 37.5 μl of 10 mM p-nitrophenyl α-D-mannospyranoside. Jack Bean α-mannosidase (Sigma, 38 U/ml) was diluted 1/800, 10 μl was added to each well and the plates were incubated for 20 min at 37° C. The reaction was stopped by the addition of 150 μl of 0.5M sodium carbonate and formation of p-nitrophenol was measured with a plate set at 405 nm. The effects of SW and analogues on cellular acid α-mannosidases (ie. lysosomal enzyme) were measured using the same assay where Jack Bean α-mannosidase was replaced by 10 μl MDAY-D2 tumor cell lysate (10 μg/μl of protein) prepared in 0.9% NaCl, 50 mM Tris pH 7.0, 0.5% Triton X-100 and 1.0 mM diethyl p-nitrophenyl phosphate.

[2] abbreviates: MDAY-D2 tumor cell lysate, pH 5.0, read-out: IC50 for inhibition of MDAY-D2 α-mannosidase.

Where two headings read alike, the source gives them in different places.

As usually defined, the IC50 is the point on the concentration scale where inhibition reaches its midpoint. `CCCCCCCC(=O)OC1CN2CCCC(O)C2C1O` (centres unmarked) [2-octanoyloxy-SW] had a CFU with bone marrow cells of 482 ± 22 colonies/10^7 cells. In addition, in test [1] (setting [2]), the IC50 was determined as 35 µM.
For `O[C@H]1[C@H]2[C@H](O)CCCN2C[C@H]1O` [SW, Swainsonine, reference compound], in the test on bone marrow cells, the BM cellularity was 4.50 ± 0.42 cells × 10^7 and the CFU amounted to 540 ± 34 colonies/10^7 cells. In addition, the IC50 in test [1] stood at 0.5 µM.
For `O=C(OC1CN2CCCC(O)C2C1O)c1ccccc1` (centres unmarked) [2-benzoyloxy-SW], in the test on bone marrow cells, the BM cellularity is recorded as 5.77 ± 0.00 cells × 10^7 and the CFU is 421 ± 44 colonies/10^7 cells. For the same compound, the IC50 in test [1] (setting [2]) was 720 µM.
In the test on bone marrow cells, `CCCCCCCCCCCCCC(=O)OC1CCCN2CC(O)C(O)C12` (centres unmarked) [8-myristinoyloxy-SW] showed a BM cellularity of 4.80 ± 0.24 cells × 10^7 and a CFU of 226 ± 6 colonies/10^7 cells. Moreover, in test [1] (setting [2]), the IC50 is above 500 µM.
In the test with bone marrow cells, `CCCC(=O)OC1CN2CCCC(O)C2C1O` (centres unmarked) [2-butanoyloxy-SW] showed a BM cellularity of 3.80 ± 0.91 cells × 10^7 and a CFU of 545 ± 59 colonies/10^7 cells. The 50% inhibitory concentration (IC50) in test [1] (setting [2]) turned out to be 35 µM.
Consider `CCCCCCCCCCCCCCCC(=O)OC1CCCN2CC(O)C(O)C12` (centres unmarked) [8-palmitoyloxy-SW], for which, in the test with bone marrow cells, the BM cellularity stood at 5.10 ± 0.57 cells × 10^7 and the CFU is recorded as 553 ± 32 colonies/10^7 cells. For the same compound, the IC50 in test [1] (setting [2]) worked out at 500 µM.
Turning to `OC1CN2C[C@@H](O)[C@@H](O)[C@H]2[C@H](O)C1O` (some centres unmarked) [6,7-dihydroxy-SW], in the test with bone marrow cells, the BM cellularity amounted to 5.20 ± 0.03 cells × 10^7 and the CFU is 538 ± 5 colonies/10^7 cells. Further, the IC50 in test [1] (setting [2]) is 10 µM.
For `Cc1ccc(C(=O)O[C@@H]2CN3CCC[C@@H](O)[C@@H]3[C@@H]2O)cc1` [2-toluoyloxy-SW], in the test with bone marrow cells, the BM cellularity was determined as 3.40 ± 0.25 cells × 10^7 and the CFU was found to be 384 ± 25 colonies/10^7 cells. For the same compound, the IC50 in test [1] (setting [2]) stood at 69 µM.
In the test with bone marrow cells, `O=C(OC1CN2CCCC(O)C2C1O)c1ccc([N+](=O)[O-])cc1` (centres unmarked) [2-p-nitrobenzoyloxy-SW] returned a BM cellularity of 3.60 ± 0.42 cells × 10^7 and a CFU of 380 ± 7 colonies/10^7 cells. Also, the IC50 in test [1] (setting [2]) is 35 µM.
